Measured values taken from PMC11783601, “Analogue-Sensitive Inhibition of Histone Demethylases Uncovers Member-Specific Function in Ribosomal Protein Synthesis” (Journal of the American Chemical Society, 2025).

Key:
TET1 = molecular target: T1, TET1 (Homo sapiens, UniProt Q8NFU7); experiment: Activity of full-length TET in HEK293T cells, 5hmC dot blot; assay type: cell-based; conditions: dot-blot with 5hmC antibody
T1 construct: transfected with full-length TET1/3 constructs; expressed in transfected cells; host or cells: HEK293T
Experimental: (§1) were quantified with Bradford assay (Bio-Rad laboratories) using BSA as a standard and used for
(§2) 14. Expression and activity of full-length TET1 and 3 in HEK293T cells
(§3) To determine the effect of 6A on TET1 and TET3 activity, HEK293T cells were plated in 6 well
(§4) plates and transfected with full-length TET1/3 constructs. Briefly, 2ug of TET1/3 or Empty Vector
(§5) control per well was added to 200µL of JetOptimus buffer and vortexed followed by addition of
(§6) 3µL JetOptimus reagent. The solution was vortexed and left to sit at room temperature for 10
(§7) minutes. The solution was then added to 1.8mL of DMEM and added to the cells in culture plate.
(§8) The cells were left for 4 hours at 37 °C incubator at 5% CO2. The media was aspirated and replaced
(§9) with 2mL of DMEM and 100µM of 6A was added or equivalent volume of DMSO and left in the
(§10) incubator for 24 hours. Cells were then collected and subject to genomic DNA isolation using
(§11) Fisher GeneJET gemoic DNA Purification Kit (Fisher K0721) following manufactures protocol.
(§12) 1000ng of gDNA, as measured via nanodrop, was then subject to Dot Blot experiment. Briefly,
(§13) 20µL of 1000ng gDNA was added to 40µL of 2M NaOH-50mM EDTA solution for 3 minutes at
(§14) room temperature. 140µL of 10mM Tris/1mM EDTA pH 8.0 (TE) buffer and heated at 95 °C for […]

TET3 = molecular target: T2, TET3 (Homo sapiens, UniProt O43151); experiment: as above; assay type: cell-based; conditions: dot-blot with 5hmC antibody
T2 construct: transfected with full-length TET1/3 constructs; expressed in transfected cells; host or cells: HEK293T
Experimental: as §1, §2, §3, §4, §5, §6, §7, §8, §9, §10, §11, §12, §13, §14

TET2 = experiment: MALDI-based assay for TET2 on 5-mC DNA substrate; assay type: biochemical, human; conditions: MALDI-TOF, 5mC oligonucleotide
Experimental: Aliquots were kept on ice for 10 minutes before addition of 200
(§15) µM 2OG or equivalent volume of water. After 30-60 minutes incubation at 37 °C, 1 µL sample and
(§16) 1 µL S-DHB matrix were spotted on a MALDI plate and monitored with Bruker FlexControl in
the reflectron positive mode and analyzed on Bruker FlexAnalysis software. Relative inhibition
was monitored via assessing percent product decrease with L-Leu NOG samples compared to no
temperature for 10 minutes.

PHD3 (EGLN3) = molecular target: T3, PHD3 (EGLN3) (Homo sapiens, UniProt Q9H6Z9); experiment: MALDI-based assay EGLN3 prolyl hydroxylation of peptide; assay type: biochemical; conditions: MALDI-TOF, peptide substrate
T3 construct: Full length EGLN3 construct plasmid with; TEV-His (N); host or cells: E. coli BL21 (DE3)
Experimental: demethylation events on the peptide. The percent peak area was calculated, and the K27me2, me1,
and me0 peaks were summed to get the relative percent demethylated peptide.
MALDI-based assay for FTO and ALKBH5: To determine the enzymatic activity of FTO and
ALKBH5 recombinant proteins in the presence of L-Leu NOG 6, a previously published methods
were utilized.15, 18 Briefly,10 µM of each protein was incubated in the presence of 10 µM RNA
7.5, 150 mM KCl, 50 µM L-Leu NOG or equivalent volume of water in 10 µL aliquots. The
samples were placed on ice for 10 minutes followed by addition of 200 µM 2OG or equivalent
volume of water. After incubation at 37 °C for 30 minutes, samples were desalted with 3 µL of BT
spotted on a MALDI plate with 1uL sample and 1uL of 3-HPA matrix and monitored with Bruker
FlexControl in the reflectron negative mode and analyzed on Bruker FlexAnalysis software.
Relative inhibition was monitored via assessing percent product decrease with L-Leu NOG
MALDI-based assay for C14orf169 (NO66) and MINA: To monitor the enzymatic activity of […]
as §16
(§17) the reflectron positive mode and analyzed on Bruker FlexAnalysis software. […]
was monitored via assessing percent product decrease with L-Leu NOG samples compared to no […]
monitored following a reported method.19 To monitor the enzymatic activity of EGLN1 and 3 […]

MINA = molecular target: T4, MINA (Homo sapiens, UniProt Q8IUF8); experiment: MALDI-based assay for MINA histidyl hydroxylation of peptide; assay type: biochemical; conditions: MALDI-TOF, peptide substrate
T4 construct: we recombinantly expressed the catalytic domains of 12 wild type dioxygenases; His-TEV (N); host or cells: E. coli BL21 (DE3)
Experimental: MALDI-based assay for C14orf169 (NO66) and MINA: To monitor the enzymatic activity of
C14orf169 and MINA recombinant proteins, previous methods were utilized.10-11 Briefly, 10 µM
each recombinant protein was incubated with 10 µM peptide substrate (NH2-
Ascorbic Acid, 100 µM Iron (II), 50mM HEPES pH 7.5, and 200 µM L-Leu NOG or equivalent
volume of water in 10 µL water. Aliquots were kept on ice for 10 minutes before addition of 200
as §15, §16, §17

T2 sequence (O43151 whole entry): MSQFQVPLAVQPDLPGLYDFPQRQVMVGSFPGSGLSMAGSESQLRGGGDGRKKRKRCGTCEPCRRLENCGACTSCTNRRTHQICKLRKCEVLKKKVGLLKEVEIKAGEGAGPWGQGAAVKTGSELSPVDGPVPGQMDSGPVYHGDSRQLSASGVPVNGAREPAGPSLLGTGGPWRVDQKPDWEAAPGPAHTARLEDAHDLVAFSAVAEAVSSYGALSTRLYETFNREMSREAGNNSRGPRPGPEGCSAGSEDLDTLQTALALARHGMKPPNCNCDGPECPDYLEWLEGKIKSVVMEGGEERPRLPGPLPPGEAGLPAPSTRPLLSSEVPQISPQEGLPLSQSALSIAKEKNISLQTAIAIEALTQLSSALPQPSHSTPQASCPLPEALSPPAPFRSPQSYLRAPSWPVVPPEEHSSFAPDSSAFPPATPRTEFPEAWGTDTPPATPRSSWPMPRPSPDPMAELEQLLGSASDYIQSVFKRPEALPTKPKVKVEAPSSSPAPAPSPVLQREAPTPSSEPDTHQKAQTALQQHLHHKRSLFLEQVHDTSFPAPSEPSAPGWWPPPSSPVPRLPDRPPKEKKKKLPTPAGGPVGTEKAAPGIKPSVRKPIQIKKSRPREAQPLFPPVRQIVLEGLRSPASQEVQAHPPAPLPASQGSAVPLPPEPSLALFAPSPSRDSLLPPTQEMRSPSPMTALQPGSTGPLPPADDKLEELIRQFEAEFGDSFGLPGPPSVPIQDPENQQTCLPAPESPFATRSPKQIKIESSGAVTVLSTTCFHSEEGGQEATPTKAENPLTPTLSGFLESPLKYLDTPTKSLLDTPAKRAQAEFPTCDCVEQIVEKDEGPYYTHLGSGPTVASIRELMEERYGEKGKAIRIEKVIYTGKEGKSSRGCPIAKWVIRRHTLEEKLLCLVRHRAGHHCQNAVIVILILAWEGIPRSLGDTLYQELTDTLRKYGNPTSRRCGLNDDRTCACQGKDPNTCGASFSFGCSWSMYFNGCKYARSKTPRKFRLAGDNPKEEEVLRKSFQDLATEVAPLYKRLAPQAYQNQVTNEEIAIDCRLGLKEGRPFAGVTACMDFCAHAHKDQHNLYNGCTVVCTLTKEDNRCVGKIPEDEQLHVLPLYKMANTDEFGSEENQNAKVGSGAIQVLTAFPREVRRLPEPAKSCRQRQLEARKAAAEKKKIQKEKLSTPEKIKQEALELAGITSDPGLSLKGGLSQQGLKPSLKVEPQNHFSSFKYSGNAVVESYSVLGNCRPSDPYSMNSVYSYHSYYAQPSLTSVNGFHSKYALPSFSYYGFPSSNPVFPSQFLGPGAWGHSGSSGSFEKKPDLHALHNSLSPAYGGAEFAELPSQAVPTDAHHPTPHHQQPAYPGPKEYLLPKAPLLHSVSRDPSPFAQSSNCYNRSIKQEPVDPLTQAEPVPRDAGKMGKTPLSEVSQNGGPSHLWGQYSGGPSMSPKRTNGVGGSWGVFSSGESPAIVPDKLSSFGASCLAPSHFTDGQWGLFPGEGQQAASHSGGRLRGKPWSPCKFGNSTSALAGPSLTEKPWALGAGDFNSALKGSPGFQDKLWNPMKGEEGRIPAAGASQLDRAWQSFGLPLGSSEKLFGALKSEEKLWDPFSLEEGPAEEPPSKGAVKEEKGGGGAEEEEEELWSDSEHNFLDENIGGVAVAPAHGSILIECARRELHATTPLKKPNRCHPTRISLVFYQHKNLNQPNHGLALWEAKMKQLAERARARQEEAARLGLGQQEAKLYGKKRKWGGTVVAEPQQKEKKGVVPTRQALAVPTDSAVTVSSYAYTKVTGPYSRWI
T4 sequence (Q8IUF8 139-271 limits assumed): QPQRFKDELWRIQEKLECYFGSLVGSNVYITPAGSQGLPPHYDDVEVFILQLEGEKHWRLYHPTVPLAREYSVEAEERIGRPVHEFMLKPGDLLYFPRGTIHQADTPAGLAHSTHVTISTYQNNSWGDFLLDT
T1 sequence (Q8NFU7 whole entry): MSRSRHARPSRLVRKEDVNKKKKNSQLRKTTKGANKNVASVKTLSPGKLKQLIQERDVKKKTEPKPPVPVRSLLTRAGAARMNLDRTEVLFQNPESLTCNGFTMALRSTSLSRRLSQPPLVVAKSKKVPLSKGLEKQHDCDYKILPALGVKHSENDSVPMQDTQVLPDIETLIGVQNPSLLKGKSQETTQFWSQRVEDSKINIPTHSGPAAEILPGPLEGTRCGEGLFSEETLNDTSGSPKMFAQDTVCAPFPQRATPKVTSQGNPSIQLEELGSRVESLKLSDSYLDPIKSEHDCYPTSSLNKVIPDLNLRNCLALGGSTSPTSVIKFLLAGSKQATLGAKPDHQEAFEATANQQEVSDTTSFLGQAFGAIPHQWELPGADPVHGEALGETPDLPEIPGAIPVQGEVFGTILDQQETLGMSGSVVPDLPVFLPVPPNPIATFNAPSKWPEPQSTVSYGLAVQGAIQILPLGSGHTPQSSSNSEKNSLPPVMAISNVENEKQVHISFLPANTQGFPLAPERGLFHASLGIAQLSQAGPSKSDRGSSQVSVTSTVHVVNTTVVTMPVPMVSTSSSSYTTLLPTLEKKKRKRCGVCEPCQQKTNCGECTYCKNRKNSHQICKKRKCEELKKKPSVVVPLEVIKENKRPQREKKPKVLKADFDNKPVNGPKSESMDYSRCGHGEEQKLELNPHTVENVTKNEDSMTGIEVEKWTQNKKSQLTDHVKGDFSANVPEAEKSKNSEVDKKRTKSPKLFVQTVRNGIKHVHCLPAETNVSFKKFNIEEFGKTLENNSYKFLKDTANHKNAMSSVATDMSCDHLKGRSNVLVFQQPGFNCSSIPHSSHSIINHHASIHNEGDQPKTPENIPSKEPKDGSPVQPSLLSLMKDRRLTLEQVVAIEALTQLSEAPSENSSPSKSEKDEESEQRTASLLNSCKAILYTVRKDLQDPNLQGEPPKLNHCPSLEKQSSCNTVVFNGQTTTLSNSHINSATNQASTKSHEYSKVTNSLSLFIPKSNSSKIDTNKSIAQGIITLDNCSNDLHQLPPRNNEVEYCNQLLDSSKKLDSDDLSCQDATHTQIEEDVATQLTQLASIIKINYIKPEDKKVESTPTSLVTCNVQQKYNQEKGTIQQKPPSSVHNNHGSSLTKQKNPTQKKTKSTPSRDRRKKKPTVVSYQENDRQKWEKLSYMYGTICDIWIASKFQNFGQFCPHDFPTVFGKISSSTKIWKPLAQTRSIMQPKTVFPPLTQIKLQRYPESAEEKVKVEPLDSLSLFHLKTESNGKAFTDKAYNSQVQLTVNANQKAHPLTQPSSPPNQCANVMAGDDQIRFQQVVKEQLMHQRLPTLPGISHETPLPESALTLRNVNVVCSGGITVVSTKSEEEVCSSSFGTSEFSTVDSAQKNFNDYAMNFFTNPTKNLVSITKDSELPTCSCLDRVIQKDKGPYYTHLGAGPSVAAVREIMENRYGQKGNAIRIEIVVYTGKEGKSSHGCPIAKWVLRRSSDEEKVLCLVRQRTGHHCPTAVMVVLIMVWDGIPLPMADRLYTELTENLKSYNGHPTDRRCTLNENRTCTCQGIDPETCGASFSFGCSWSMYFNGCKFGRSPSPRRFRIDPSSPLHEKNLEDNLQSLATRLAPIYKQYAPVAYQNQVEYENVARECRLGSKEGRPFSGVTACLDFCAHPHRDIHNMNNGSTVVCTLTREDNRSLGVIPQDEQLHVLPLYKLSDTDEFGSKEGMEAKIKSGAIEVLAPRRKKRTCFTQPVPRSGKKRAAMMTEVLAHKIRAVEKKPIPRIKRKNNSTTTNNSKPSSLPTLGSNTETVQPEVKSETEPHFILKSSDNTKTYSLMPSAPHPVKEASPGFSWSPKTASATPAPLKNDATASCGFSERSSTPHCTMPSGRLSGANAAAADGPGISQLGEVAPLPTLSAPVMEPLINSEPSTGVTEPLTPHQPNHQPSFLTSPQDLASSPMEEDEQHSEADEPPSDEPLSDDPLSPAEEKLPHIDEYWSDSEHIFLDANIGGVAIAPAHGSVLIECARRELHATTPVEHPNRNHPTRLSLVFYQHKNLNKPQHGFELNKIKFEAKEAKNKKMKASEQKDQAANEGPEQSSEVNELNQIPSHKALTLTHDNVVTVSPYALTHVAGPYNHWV
T3 sequence (Q9H6Z9 whole entry): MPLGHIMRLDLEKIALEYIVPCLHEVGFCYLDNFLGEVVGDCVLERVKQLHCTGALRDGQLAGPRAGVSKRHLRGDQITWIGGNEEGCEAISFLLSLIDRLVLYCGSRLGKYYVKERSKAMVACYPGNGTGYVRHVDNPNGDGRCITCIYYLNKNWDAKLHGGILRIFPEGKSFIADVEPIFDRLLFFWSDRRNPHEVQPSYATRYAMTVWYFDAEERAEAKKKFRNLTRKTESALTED

## CCCCCCCCOC(=O)C(=O)NC(CC(C)C)C(=O)O [6A, L-Leu octyl-ester NOG]
TET1
  inhibition of TET1 5hmC formation: No inhibition
TET3
  inhibition of TET3 5hmC formation: No inhibition

## CC(C)CC(NC(=O)C(=O)O)C(=O)O (centres unmarked) [compound 6, N-oxalyl leucine]
TET2
  inhibition of TET2: No inhibition
PHD3 (EGLN3)
  inhibition of PHD3: No inhibition
MINA
  inhibition of MINA: No inhibition
